Measured values from article PMC9130233, “An inhibitor of RORγ for chronic pulmonary obstructive disease treatment” (Scientific Reports, 2022).

Assays:
[1] = tested on: GABA Cl; assay: Cerep panel, GABA Cl
Description: Based on the homology of the ligand binding domains, 3 different isoforms of ROR (hRORα, hRORβ and hRORγ) are reported. Small variations in the LBD regions possibly lead to differences in competitive binding between the nuclear receptors of the ROR isoforms (Fig. 1b). Similar to the assessment of RORγ binding assay, TR-FRET binding assays were also used to assess the affinity of PCCR-1 for other ROR isoforms. […] This was reconfirmed in cellular functional assays for the selected isoforms and nuclear receptors using Gal4 DBD with luciferase reporter system from Indigo (PA, USA). […] In addition, both cellular agonist and antagonist effects as well as for enzyme activity were evaluated with a known reference compound for each target, using a radiolabeled method (Eurofins Cerep, France, Table 1).

[2] = tested on: IL-17A release in human PBMC; assay: IL-17A release, human PBMC under Th17 polarization conditions; type: cell-based; conditions: human PBMC under Th17 polarization condition, n = 2; read-out: hIL-17 (IL-17A) IC50
Method: An increase in the levels of Th17 dependent cytokine in the peripheral blood of COPD patients as compared to the Th1 and Th2 dependent cytokines has been well documented in a subset of COPD patients. A comparative study was performed under TCR activating conditions to evaluate the potencies of PCCR-1 for inhibition across Th1, Th2 and Th17 dependent cytokines using hPBMCs.
Human whole blood from healthy subjects were procured from Clinical Research Unit, Sanpada. Clinical Research Center Glenmark (Plot No. D, 508, Turbhe, TTC Industrial Area, MIDC, Sanpada, Navi Mumbai, Maharashtra 400705, India). PBMCs were isolated using heparinized blood with Ficoll Histopaque. Briefly, the cells were seeded in 96-well plate pre-coated with human anti-CD3 mAb (10 µg/mL), post 30 min of compound treatment cells were stimulated with human anti-CD28 mAb (2 µg/mL). After 72 h of culture, the supernatant was collected for Th1/Th2 cytokines; IFN-γ, IL-2, IL-4 and IL-10 and measured by ELISA. For Th17 polarization assay, the following cytokine cocktail was used: IL-1β (10 ng/ml), IL-23(10 ng/ml), IL-6 (50 ng/ml), TGF-β1 (3 ng/ml), IL-2 (20U/ml) and supernatants were used for measuring IL-17 and IL-22 by ELISA.

[3] = tested on: IL-17 release from COPD patient PBMCs; assay: IL-17 release, PBMC from COPD patients; type: cell-based; conditions: Homo sapiens, TCR stimulated, n = 16, read-out: IL-17 IC50, COPD patient's sample: PBMC
Method: Whole blood and BAL samples from COPD patients were obtained from Multispecialty hospital, Mumbai post approval from ethics committee and informed consent of patients. 30–40 mL Broncho alveolar lavage (BALf) was collected per patient and stored in ice. Blood was collected in heparin vaccutainer as per approved protocol. Both the samples were processed within 2 h of collection. BALF was passed through 100-µm and 40-µm cell strainer to remove debris and mucus, the samples were centrifuged and the cells were re-suspended in RPMI 1640 complete medium. PBMCs from blood were isolated using Histopaque-1077 by density gradient centrifugation. Isolated BAL cells and PBMCs were seeded in 96 well coated with 10 µg/ml anti-CD3 and 2 µg/ml anti-CD2. Cells were further treated with different concentration of test compound for 60 min followed by stimulation with 20 µg/ml anti-CD28 and incubated for 48–72 h. The supernatant was used for estimating IL-17 by ELISA.

[4] = tested on: IL-17A in human whole blood; assay: IL-17A inhibition, human whole blood, TCR stimulation; type: cell-based; conditions: TCR stimulatory conditions, n = 10
Method: For whole blood assay the heparinized whole blood was diluted (1:1) with saline and added in 96-well plate pre-coated with human anti-CD3 mAb (10 µg/mL). Compound treatment was done for 30 min followed by co-stimulation with anti-CD28 mAb (2 µg/mL). After 48 h of incubation supernatant was used for IL-17 estimation by ELISA.

[5] = tested on: IL-17 release in mouse peritoneal neutrophils; assay: IL-17 release, mouse peritoneal neutrophils, LPS; type: cell-based; conditions: Neutrophil, n = 2, read-out: potency, IL-17 release inhibition
Method: The peritoneal neutrophils or macrophages were isolated from C57BL/6 male mice or BALB/c female mice (6–8 wks; 18–22 g) injected with 3% or 4% thioglycollate broth. After 4 h or 4 days, RPMI medium was injected into the peritoneal cavity of mouse and peritoneal lavage was collected. The lavage was pooled and spun at 800 rpm for 10 min. The pellet was re-suspended in 1X Gey’s solution for 5 min followed by PBS wash. In case of neutrophils, the isolated cells were seeded in 48 well plate for 1.5 h. After 1.5 h, the supernatant containing peritoneal neutrophils were collected and centrifuged at 2000 rpm for 10 min and the pellet were re-suspended in 2% RPMI. In case of isolated peritoneal macrophages, the cells were seeded in 48 well plate for 3–4 h followed by PBS wash. Both the neutrophils and macrophages were treated with PCCR-1 in 2% RPMI for 1 h followed by stimulation with 10 µg/ml or 5 µg/ml of LPS for 18 h or 24 h. The supernatant collected for IL-17 estimation by ELISA.

CCn1c(C(C)(C)Oc2ccc(F)cc2F)nc2cc(NC(=O)Cc3ccc(S(=O)(=O)CC)cc3)ccc21 [PCCR-1]
IC50 [1]: 4800 nM
IC50 [2]: 66.5 nM
IC50 [3]: 336 nM
IC50 [4]: 3050 nM
IC50 [5]: 245 nM
